This is an account of results in paper PMC7947852, “Identification and Characterization of Chalcone Isomerase Genes Involved in Flavonoid Production in Dracaena cambodiana” (Frontiers in Plant Science, 2021).

This experiment concerns the target T1, DcCHI1 (Dracaena cambodiana, UniProt A0A8A5KFS9).
T1 construct: gene CHI1
T1 sequence (A0A8A5KFS9 1-219): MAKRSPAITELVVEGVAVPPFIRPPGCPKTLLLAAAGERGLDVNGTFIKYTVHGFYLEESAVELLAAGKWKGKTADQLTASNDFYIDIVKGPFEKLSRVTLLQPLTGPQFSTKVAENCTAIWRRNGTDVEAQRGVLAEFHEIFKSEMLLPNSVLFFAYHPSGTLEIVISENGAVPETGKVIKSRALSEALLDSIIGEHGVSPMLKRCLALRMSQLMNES
Nature of the experiment: HPLC of reaction product. In kind it is biochemical. The note with it: 100 mM Tris-HCl pH 7.6, 30 °C, 2 min; 5 µl of 5 mM substrate in 200 µl.

As to `O=C(/C=C/c1ccc(O)cc1)c1c(O)cc(O)cc1O` [naringenin chalcone], the “HPLC of reaction product” value is “recombinant DcCHI1 could catalyze the formation of naringenin with naringenin chalcone as the substrate”. The value for `O=C1C[C@@H](c2ccc(O)cc2)Oc2cc(O)cc(O)c21` [naringenin] was “recombinant DcCHI1 could catalyze the formation of naringenin with naringenin chalcone as the substrate”.
